Series [1] addresses Replicase polyprotein 1ab (Severe acute respiratory syndrome coronavirus 2, UniProt P0DTD1). Briefly: Inhibition of wild type recombinant SARS-CoV-2 3CLpro (1 to 306 residues) expressed in Escherichia coli (DE3) competent cells using CP488-ESATLQSGLRKAK-(CPQ2)-NH2 as substrate preincubated for 30 mins followed by substrate addition and measured after 4 hrs by FRET assay.
In series [2] the target is T1, Nuclear receptor subfamily 1 group I member 2 (Homo sapiens, UniProt O75469).
T1 sequence (O75469 whole entry): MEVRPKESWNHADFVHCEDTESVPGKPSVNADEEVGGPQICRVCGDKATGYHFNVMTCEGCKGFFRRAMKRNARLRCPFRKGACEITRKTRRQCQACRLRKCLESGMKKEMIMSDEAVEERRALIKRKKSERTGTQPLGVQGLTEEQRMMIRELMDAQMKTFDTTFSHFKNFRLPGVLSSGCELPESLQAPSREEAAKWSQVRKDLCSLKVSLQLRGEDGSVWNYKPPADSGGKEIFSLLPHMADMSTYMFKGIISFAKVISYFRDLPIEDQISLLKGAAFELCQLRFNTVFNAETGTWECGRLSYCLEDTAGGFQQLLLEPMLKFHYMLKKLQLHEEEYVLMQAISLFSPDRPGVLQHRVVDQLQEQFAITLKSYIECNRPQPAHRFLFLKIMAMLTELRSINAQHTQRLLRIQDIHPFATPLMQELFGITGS
Briefly: Activation of PXR (unknown origin). In kind it is toxicity.

Series [3] is described as follows: MRT in dog at 3 mg/kg, po or 1 mg/kg, iv measured upto 24 hrs by LC-MS analysis. In kind it is ADME, organism-based, Canis lupus familiaris. The note with it: in vivo.
Series [4] in a line: Oral bioavailability in rat at 3 mg/kg measured upto 24 hrs by LC-MS analysis. In kind it is ADME, organism-based. Particulars: in vivo.
A further series concerns the target CYP3A4 (Homo sapiens, UniProt P08684). Nature of the series: Ratio of IC50 for time dependent inhibition of CYP3A4 in human liver microsomes incubated for 30 mins in presence of NADPH to IC50 for time dependent inhibition of CYP3A4 in human liver microsomes incubated for 30 mins in absence of NADPH. Further details: species or system Microsome. Particulars: read-out: Ratio IC50.

Series [5] can be described thus: Oral bioavailability in rat. In kind it is ADME, organism-based. The note with it: in vivo.
Series [6] is described as follows: Apparent permeability in MDCK cells. In kind it is ADME, cell-based, Canis lupus familiaris. Particulars: dog.
The nature of series [7]: Oral bioavailability in Wistar-Han rat at 2 mg/kg. In kind it is ADME, organism-based. Particulars: in vivo.

A value given as a limit tells only on which side of the number the result lay.

Chain of CYP3A4 (P08684 whole entry): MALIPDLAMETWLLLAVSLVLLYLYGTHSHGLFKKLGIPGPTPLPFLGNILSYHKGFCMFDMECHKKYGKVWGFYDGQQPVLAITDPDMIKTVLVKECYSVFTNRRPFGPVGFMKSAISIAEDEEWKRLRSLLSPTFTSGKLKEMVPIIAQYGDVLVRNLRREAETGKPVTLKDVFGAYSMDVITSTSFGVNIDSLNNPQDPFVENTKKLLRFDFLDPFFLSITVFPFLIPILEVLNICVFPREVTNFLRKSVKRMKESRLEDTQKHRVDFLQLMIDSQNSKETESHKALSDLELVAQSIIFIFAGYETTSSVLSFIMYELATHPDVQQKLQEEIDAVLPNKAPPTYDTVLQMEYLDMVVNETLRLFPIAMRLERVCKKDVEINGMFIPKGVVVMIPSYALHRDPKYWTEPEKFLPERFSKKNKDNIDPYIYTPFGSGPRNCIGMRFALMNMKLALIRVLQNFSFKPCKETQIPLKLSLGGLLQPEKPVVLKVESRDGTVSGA

By IC50 is commonly meant the concentration needed to halve the response being measured. In general, EC50 refers to the concentration needed to bring the measured effect to its halfway point. Read a low EC50 as higher potency in that assay. Broadly, the MRT is a mean duration of stay, worked out from the concentration-time curve. The bioavailability is the share of a dose that reaches the circulation, judged against a reference dose that is usually intravenous. Low readings indicate little systemic uptake, high ones much systemic uptake. With `COC(=O)N[C@H](C(=O)N1CC2(CCCCC2)C[C@H]1C(=O)N[C@@H](CCC(C)(F)F)C(=O)C(=O)NC1CC1)C(C)(C)C`, the IC50 in series [1] was found to be 11 nM. The same molecule displayed a 50% effective concentration (EC50) in series [2] of 6800 nM. Further, in series [3], the mean residence time (MRT) amounted to 0.8 h. Further, the bioavailability in series [4] was 26%. Further, the IC50 shift at 0.5 h on CYP3A4 is greater than 1.3. Take `CCCC[C@H](NC(=O)[C@@H]1CC2(CCCCC2)CN1C(=O)[C@@H](NC(=O)OC)C(C)(C)C)C(=O)C(=O)NC1CC1`: the IC50 in series [1] was 715 nM. For `CC(F)(F)CC[C@H](NC(=O)[C@@H]1CC2(CCCCC2)CN1C(=O)[C@@H](NC(=O)OCc1ccccc1)C1CCCCC1)C(=O)C(=O)NC1CC1`, the IC50 in series [1] turned out to be 16 nM.

As for `CC(F)(F)CC[C@H](NC(=O)[C@@H]1CC2(CCCCC2)CN1C(=O)C(O)c1cccc(F)c1)C(=O)C(=O)NC1CC1` (stereo partly drawn), the IC50 in series [1] turned out to be 56 nM. For the molecule `COC(=O)N[C@H](C(=O)N1C[C@@H]2CCC[C@@H]2[C@H]1C(=O)N[C@@H](CC[C@@H](C)F)C(=O)C(=O)NC1CC1)C(C)(C)C`, the 50% inhibitory concentration (IC50) in series [1] was 11 nM. Regarding `COC(=O)N[C@H](C(=O)N1CC2(CCCCC2)C[C@H]1C(=O)N[C@@H](CCC(C)(F)F)C(=O)C(N)=O)C(C)(C)C`, the half-maximal inhibitory concentration (IC50) in series [1] is 25 nM. Further, the concentration for a half-maximal effect (EC50) in series [2] is greater than 30000 nM. The IC50 shift at 0.5 h on CYP3A4 is greater than 1. With `COC(=O)N[C@H](C(=O)N1C[C@@H]2CCC[C@@H]2[C@H]1C(=O)N[C@@H](CCC(C)(C)F)C(=O)C(=O)NC1CC1)C(C)(C)C`, the IC50 in series [1] is 26 nM.

Consider `CC(F)(F)CC[C@H](NC(=O)[C@@H]1[C@@H]2[C@H](CN1C(=O)[C@@H](NC(=O)NC1(CS(=O)(=O)C(C)(C)C)CCCCC1)C(C)(C)C)C2(C)C)C(=O)C(=O)NC1CC1`, for which the IC50 in series [1] turned out to be 129 nM. In turn, `COC(=O)N[C@H](C(=O)N1CC[C@@H](C(F)(F)F)C[C@H]1C(=O)N[C@@H](CCC(C)(F)F)C(=O)C(=O)NC1CC1)C(C)(C)C` gave a mean residence time (MRT) in series [3] of 8.6 h. In addition, the bioavailability in series [4] was determined as 40%. The like results for `COC(=O)N[C@H](C(=O)N1C[C@@H]2CCC[C@@H]2[C@H]1C(=O)N[C@@H](CCC(C)(F)F)C(=O)C(=O)NC1CC1)C(C)(C)C` were, in that order, 2.7 h and 47%.

As to `COC(=O)N[C@H](C(=O)N1CC2(CCCCC2)C[C@H]1C(=O)N[C@@H](CCC(C)(F)F)C(=O)C(=O)NC1CCCCC1)C(C)(C)C`, the IC50 in series [1] was found to be 77 nM. This molecule registered an EC50 in series [2] of 2300 nM. Besides, on CYP3A4, the IC50 shift at 0.5 h is greater than 6. Turning to `CC(C)(C)CC(=O)N1CC2(CCCCC2)C[C@H]1C(=O)N[C@@H](CCC(C)(F)F)C(=O)C(=O)NC1CC1`, the half-maximal inhibitory concentration (IC50) in series [1] stood at 890 nM. For `COC(=O)N[C@H](C(=O)N1CC2(CCCCC2)C[C@H]1C(=O)N[C@@H](CCC(F)(F)F)C(=O)C(=O)NC1CC1)C(C)(C)C`, in series [1], the IC50 came out at 382 nM. Take `COC(=O)N[C@H](C(=O)N1C[C@@H]2CCC[C@@H]2[C@H]1C(=O)N[C@@H](CC[C@H](C)F)C(=O)C(=O)NC1CC1)C(C)(C)C`: in series [1], the IC50 was 23 nM.

For `COC(=O)N[C@H](C(=O)N1CC2(CCOCC2)C[C@H]1C(=O)N[C@@H](CCC(C)(F)F)C(=O)C(=O)NC1CC1)C(C)(C)C`, in series [1], the IC50 stood at 297 nM. With `CC(C)C[C@H](NC(=O)OCc1ccccc1)C(=O)N[C@@H](C[C@@H]1CCNC1=O)C(O)S(=O)(=O)[O-].[Na+]` (stereo partly drawn), the bioavailability in series [5] worked out at 3%.

Turning to `CC(F)(F)CC[C@H](NC(=O)[C@@H]1CC2(CCCCC2)CN1C(=O)c1cc2ccccc2[nH]1)C(=O)C(=O)NC1CC1`, in series [1], the half-maximal inhibitory concentration (IC50) worked out at 64 nM.

With `COC(=O)N[C@H](C(=O)N1CC2(CCC(F)(F)CC2)C[C@H]1C(=O)N[C@@H](CCC(C)(F)F)C(=O)C(=O)NC1CC1)C(C)(C)C`, the half-inhibitory concentration (IC50) in series [1] turned out to be 270 nM. For the molecule `COC(=O)N[C@H](C(=O)N1CC2(CCCCC2)C[C@H]1C(=O)N[C@@H](CCC(C)(F)F)C(=O)C(=O)NCc1ccncc1)C(C)(C)C`, the IC50 in series [1] was found to be 30 nM. The molecule further yielded an EC50 in series [2] greater than 30000 nM. Moreover, the IC50 shift at 0.5 h at CYP3A4 was roughly 1.

Turning to `COC(=O)N[C@H](C(=O)N1CC2(CCCCC2)C[C@H]1C(=O)N[C@@H](CC1CC1(F)F)C(=O)C(=O)NC1CC1)C(C)(C)C` (stereo partly drawn), the half-maximal inhibitory concentration (IC50) in series [1] was 355 nM. The Papp is a coefficient for how fast a substance crosses the barrier. As for `COC(=O)N[C@H](C(=O)N1CCC2(CC2)C[C@H]1C(=O)N[C@@H](CCC(C)(F)F)C(=O)C(=O)NC1CC1)C(C)(C)C`, the mean residence time (MRT) in series [3] came out at 3.6 h. The bioavailability in series [4] was determined as 60%. Moreover, in series [6], the Papp came to 16 ×10⁻⁶ cm/s. Consider `COC(=O)N[C@H](C(=O)N1C[C@H]2[C@@H]([C@H]1C(=O)N[C@@H](CCC(C)(F)F)C(=O)C(=O)NC1CC1)C21CCOCC1)C(C)(C)C`, for which, in series [3], the MRT is 2.4 h. The same molecule had a bioavailability in series [4] of 40%.

`COC(=O)N[C@H](C(=O)N1CC2(C[C@H]1C(=O)N[C@@H](CCC(C)(F)F)C(=O)C(=O)NC1CC1)CC2(F)F)C(C)(C)C` (stereo partly drawn) came in with an MRT in series [3] of 3.2 h. `COc1cccc2[nH]c(C(=O)N[C@@H](CC(C)C)C(=O)N[C@@H](C[C@@H]3CCNC3=O)C(=O)CO)cc12` [PF-00835231]: the bioavailability in series [7] was less than 2%. Turning to `CC(C)(C)NC(=O)N[C@H](C(=O)N1C[C@H]2[C@@H]([C@H]1C(=O)N[C@@H](C[C@@H]1CCNC1=O)C(=O)C(N)=O)C2(C)C)C(C)(C)C`, the apparent permeability (Papp) in series [6] was less than 1.13 ×10⁻⁶ cm/s. This molecule also gave a bioavailability in series [5] of 0.2%. In the case of `CNC(=O)C(=O)[C@H](CCC(C)(F)F)NC(=O)[C@@H]1CC2(CCCCC2)CN1C(=O)[C@@H](NC(=O)OC)C(C)(C)C`, in series [2], the response was half-maximal at 5800 nM (EC50). The IC50 shift at 0.5 h on CYP3A4 was greater than 1.6.

Molecule `CNC(=O)C(=O)[C@H](CCC(C)(F)F)NC(=O)[C@@H]1C[C@H](C(F)(F)F)CCN1C(=O)[C@@H](NC(=O)OC)C(C)(C)C` registered a mean residence time MRT in series [3] of 3.1 h. Besides, the bioavailability in series [4] amounted to 63%. In the case of `COC(=O)N[C@H](C(=O)N1CC2(CCCCC2)C[C@H]1C(=O)N[C@@H](CCC(F)F)C(=O)C(=O)NC1CC1)C(C)(C)C`, the half-inhibitory concentration (IC50) in series [1] stood at 123 nM.

Turning to `COC(=O)N[C@H](C(=O)N1CC2(CCCCC2)C[C@H]1C(=O)N[C@@H](CCC(C)(F)F)C(=O)C(=O)NCc1ccccc1)C(C)(C)C`, in series [2], a half-maximal response (EC50) required 3900 nM. For the same molecule, the IC50 shift at 0.5 h at CYP3A4 was greater than 3.1.

These data come from ChEMBL document CHEMBL5528064, “Invention of MK-7845, a SARS-CoV-2 3CL Protease Inhibitor Employing a Novel Difluorinated Glutamine Mimic” (J Med Chem, 2024).
